Assay results: patent US6011013A, “Contraceptive compositions and methods” (Oregon Health Sciences University, priority 1998, dated 2000)

What was measured:
PKA = PKA activity of sperm treated whole, then washed and lysed; type: cell-based, bovine; conditions: 50 μM
Procedure: (§1) (A). Bovine caudal and caput sperm were incubated in buffer A in the presence or absence of 50 μM CDA and/or 50 μM H-89. When sperm were treated with both CDA and H-89, the H-89 was added 15 min prior to CDA. Motility was assessed by CASMA at 15 min following treatment. (B) Bovine sperm were incubated as described for A and then assessed for PKA activity. Where indicated, 10 μM cAMP was added to the PKA assay.
PKA Activity PKA was assayed as previously described (Carr et al., J. Biol. Chem. 268:20729-20732, 1993) with minor changes. Whole caput or caudal sperm were treated with 2-chloro-2-deoxyadenosine (50 μM), H-89 (50 μM), or both for 30 min. at 37° C. The sperm were then washed twice in ice cold homogenization buffer supplemented with protease inhibitors, benzamidine (10 mM), leupeptin (4 μg/ml), and N-tosyl-L-phenylalanine chloromethyl ketone (TPCK) (100 μM), and sonicated for one min. Reaction mixtures (20 uL total) contained 250 μM kemptide, 250 μM (γ-^32 P)ATP, 25 mM Na3 VO4, 50 mM 3-[N-morpholino]propanesulfonic acid (MOPS) (pH=7.0), 10 mM MgCl2, 0.25 mg/ml BSA and where indicated, 10 μM cAMP. Assays were initiated by addition of labeled ATP, incubated for 2 min at 30° C., and stopped by addition of 30 μL of 1N HCl. […] The papers were then analyzed by Cerenkov counting. […]

[1] = test system: bovine caudal epididymal sperm; assay: Sperm motility by computer-automated sperm motility analysis (CASMA), Forward Motility Index; type: cell-based
Procedure: (A) Sperm were incubated in buffer A containing s-Ht31 at 5 μM (circle), 10 μM (square) or 50 μM (diamond) or a control peptide, S-Ht31-P at 50 μM (cross). Motility was assessed at the times indicated by computer-automated sperm motility analysis (CASMA) as described in Experimental Procedures. (B) Sperm were incubated for 5 min in buffer A containing increasing concentrations of S-Ht31 (diamonds) or control peptide S-Ht31-P (triangle) and motility was assessed.
(A) Bovine caudal epididymal sperm were suspended in buffer A supplemented with 2 mM calcium (+Calcium) or 2 mM EGTA (-Calcium). Motility was assessed by CASMA at 5, 30 and 60 min following addition of either water (control) or 10 μM s-Ht31. (B) Sperm were incubated in buffer A containing 2 mM calcium and 50 mM bicarbonate (where indicated). Motility was assessed at 5, 30 and 60 min following addition of either water (control) or 10 μM s-Ht31.
as §1
Sperm Preparation. […]
Sperm Motility Measurement. Head motility parameters were determined as previously described (Vijayaraghavan et al., Biol. Reprod 54:709-718, 1996; Stephens et al., Biol. Reprod. 38:577-586, 1988). […] After bulk fluid movement had subsided, six different locations on the slide were recorded. The videotaped segments were analyzed by a computerized image-analysis system (CASMA) as previously described (Vijayaraghavan et al., Biol. Reprod. 54:709-718, 1996; Stephens et al., Biol. Reprod. 38:577-586, 1988). […] FMI is a product of percent motile (%M, percent of sperm moving at velocity greater than […]) and average velocity (Va, the five-point smoothed average of the head positions through at least 20 of the 30 frames analyzed).

bovine caput sperm = assay: Caput sperm motility by CASMA; type: cell-based; conditions: 50 μM H-89 added 15 min prior to 50 μM CDA
Procedure: (A). Bovine caudal and caput sperm were incubated in buffer A in the presence or absence of 50 μM CDA and/or 50 μM H-89. When sperm were treated with both CDA and H-89, the H-89 was added 15 min prior to CDA. Motility was assessed by CASMA at 15 min following treatment. (B) Bovine sperm were incubated as described for A and then assessed for PKA activity. Where indicated, 10 μM cAMP was added to the PKA assay. Sperm Preparation. Testes from mature bulls with intact tunica were obtained from a local slaughter house and sperm from caput or caudal epididymis were isolated and washed as previously described (Vijayaraghavan et al., Biol. Reprod. 32:489-500, 1985). […] Head motility parameters were determined as previously described (Vijayaraghavan et al., Biol. Reprod 54:709-718, 1996; Stephens et al., Biol. Reprod. 38:577-586, 1988). […] After bulk fluid movement had subsided, six different locations on the slide were recorded. The videotaped segments were analyzed by a computerized image-analysis system (CASMA) as previously described (Vijayaraghavan et al., Biol. Reprod. 54:709-718, 1996; Stephens et al., Biol. Reprod. 38:577-586, 1988). […] FMI is a product of percent motile (%M, percent of sperm moving at velocity greater than […]) and average velocity (Va, the five-point smoothed average of the head positions through at least 20 of the 30 frames analyzed).

sperm = type: cell-based, bovine
Procedure: To determine if S-Ht31 affects sperm viability or structural integrity, the vital dyes SYBR-green and rhodamine 123 were added to sperm before and after treatment with S-Ht31. Only viable, intact cells take up these dyes.

## Nc1nc(Cl)nc2c1ncn2[C@H]1C[C@H](O)[C@@H](CO)O1 [CDA, 2-chloro-2-deoxyadenosine]
PKA; both caudal and caput sperm, absence of cAMP
  increase of basal PKA activity: approximately 60%
[1]; with H-89
  sperm motility under conditions where sperm PKA is inhibited: still induce or stimulate sperm motility

## O=S(=O)(NCCNCC=Cc1ccc(Br)cc1)c1cccc2cnccc12 [H-89, N-[2-(p-bromocinnamylamino)ethyl]-5-isoquinoline-sulfonamide]
PKA; sperm washed before lysis
  effect on cellular PKA activity: strongly inhibited PKA activity
[1]; 50 μM H-89, 50 μM CDA
  effect on sperm motility stimulated by CDA: had no effect
[1]; Bos taurus, Sperm, 50 μM, read-out: inhibition of basal sperm motility
  inhibition at 50 µM: ≤ 50%
Bovine caput sperm
  effect of preincubation on motility induction by CDA in caput sperm: unaffected

## C[C@@H]1CC[C@@]2(OC1)O[C@H]1[C@@H](O)[C@H]3[C@@H]4CC[C@H]5C[C@@H](O[C@@H]6O[C@H](CO)[C@H](O[C@@H]7O[C@H](CO)[C@@H](O)[C@H](O[C@@H]8OC[C@@H](O)[C@H](O)[C@H]8O)[C@H]7O[C@@H]7O[C@H](CO)[C@H](O)[C@H](O[C@@H]8O[C@H](CO)[C@@H](O)[C@H](O)[C@H]8O)[C@H]7O)[C@H](O)[C@H]6O)[C@H](O)C[C@]5(C)[C@H]4CC[C@]3(C)[C@H]1[C@@H]2C [digitonin]
sperm
  release of dyes from sperm loaded with BCECF or Fura 2 (plasma membrane integrity): caused release of these dyes

## CCCCCCCCCCCCCCCCCC(=O)N[C@@H](CC(=O)O)C(=O)N[C@@H](CC(C)C)C(=O)N[C@H](C(=O)N[C@@H](CCC(=O)O)C(=O)N[C@@H](CCC(=O)O)C(=O)N[C@@H](C)C(=O)N[C@@H](C)C(=O)N[C@@H](CO)C(=O)N[C@@H](CCCNC(=N)N)C(=O)N[C@H](C(=O)N[C@H](C(=O)N[C@@H](CC(=O)O)C(=O)N[C@@H](C)C(=O)N[C@H](C(=O)N[C@H](C(=O)N[C@@H](CCC(=O)O)C(=O)N[C@@H](CCC(N)=O)C(=O)N[C@H](C(=O)N[C@@H](CCCCN)C(=O)N[C@@H](C)C(=O)N[C@@H](C)C(=O)NCC(=O)N[C@@H](C)C(=O)N[C@@H](Cc1ccc(O)cc1)C(=O)O)C(C)C)[C@@H](C)CC)C(C)C)C(C)C)[C@@H](C)CC)[C@@H](C)CC [s-Ht31]
sperm
  release of dyes from sperm loaded with BCECF or Fura 2 (plasma membrane integrity): did not compromise the integrity of the plasma membrane
  sperm viability and plasma membrane integrity (uptake of vital dyes SYBR-green and rhodamine 123): did not decrease viability or disrupt the integrity of the sperm plasma membrane
